Assay results published in PMC12040169 (PLOS Biology, 2025).

Experiment: in vitro
Conditions: human, hela cells, % viability

| Compound | viability at 28.5 h, 10 µM [%] |
| --- | --- |
| Cc1cn(CC(=O)N2CCC3(CCCNC3)C2)c(=O)[nH]c1=O (stereo not shown) [CBK153231C] | 95.9 |
| O=C(c1ccco1)N1CCC2(CCCNC2)C1 (stereo not shown) [CBK153233C] | 93.8 |
| O=C(CC1CC1)Nc1snnc1-c1ccc(Cl)cc1 [CBK153239] | 97 |
| O=C(Nc1snnc1-c1ccc(Cl)cc1)c1ccco1 [CBK153242] | 102 |
| O=C(Cc1ccsc1)Nc1snnc1-c1ccc(Cl)cc1 [CBK153243] | 94.5 |
| O=C(Nc1snnc1-c1ccc(Cl)cc1)c1cccc(C(F)(F)F)c1 [CBK153246] | 72.5 |
| CCc1c(C)nc2ccccc2c1SCC(=O)O [CBK153279] | 83.9 |
| Cc1cc(CNC(=O)C2=CC(=O)CC(C)(C)O2)no1 [CBK153281] | 104 |
| Cc1cc(Cl)ccc1CNC(=O)C1=CC(=O)CC(C)(C)O1 [CBK153282] | 97.5 |
| CC1(C)CC(=O)C=C(C(=O)NCc2ccc3c(c2)OCO3)O1 [CBK153290] | 98.3 |
| CN(C)CC(C)(C)CNC(=O)C1=CC(=O)CC(C)(C)O1 [CBK153291] | 103 |
| CC1(C)CC(=O)C=C(C(=O)NCc2cccs2)O1 [CBK153292] | 97.5 |
| O=C(NCCN1CCCC1)c1ccc2nc[nH]c2c1 [CBK153311] | 86 |
| Cc1cnc(CNC(=O)c2ccc3nc[nH]c3c2)cn1 [CBK153318] | 88.4 |
| O=C(NCCc1ccc(O)cc1)c1ccc2nc[nH]c2c1 [CBK153323] | 106 |
| N#Cc1ccc(CNC(=O)c2ccc3nc[nH]c3c2)cc1 [CBK153332] | 95.1 |
| CCOC(=O)CCSc1c(CC)c(C)nc2ccccc12 [CBK153457T] | 93.5 |
| O=S(=O)(Nc1ccc2[nH]ccc2c1)c1ccc(Br)cc1F [CBK153510] | 88.9 |
| O=S(=O)(Cc1ccc(Cl)cc1)Nc1cccc2[nH]ccc12 [CBK153531] | 99.5 |
| O=S(=O)(Nc1cccc2[nH]ccc12)c1ccc(F)cc1F [CBK153546] | 62.2 |
| O=S(=O)(Nc1cccc2[nH]ccc12)c1ccc(Br)cc1F [CBK153547] | 80.6 |
| N#CCCCN1CCC(Oc2nccnc2OCc2cccc(Br)c2)CC1 [CBK153631] | 99.1 |
| N#CCCCN1CCC(Oc2nccnc2OCc2cc(Cl)cc(Cl)c2)CC1 [CBK153634] | 93.9 |

| Compound | viability at 28.5 h, 10 µM [%] |
| --- | --- |
| N#CCCCN1CCC(Oc2nccnc2OCc2cccc(Cl)c2)CC1 [CBK153642] | 90.6 |
| N#CCCCN1CCC(Oc2nccnc2OCc2ccc(F)cc2)CC1 [CBK153643] | 115 |
| N#CCCCN1CCC(Oc2nccnc2OCc2ccc(Br)cc2F)CC1 [CBK153647] | 94.7 |
| Cc1cccc(C)c1N(C1CCNCC1)S(=O)(=O)c1ccc2c(c1)CCO2 [CBK153668T] | 99.1 |
| Cc1ccc(-c2oncc2C(=O)NCc2cccs2)cc1 [CBK153679] | 95.7 |
| CCN(CC)C(=O)c1cnoc1-c1ccc(Br)cc1 [CBK153725] | 94.4 |
| COc1ccc(CCNC(=O)c2cnoc2-c2ccc(C)cc2)cc1 [CBK153731] | 119 |
| CS(=O)(=O)c1ccc(Cn2ccnc(N3CCN(C(=O)C4CCCCC4)CC3)c2=O)cc1 [CBK153771] | 90.3 |
| O=c1cc(CN2CCC(Oc3nccnc3OCc3ccc(Cl)c(Cl)c3)CC2)[nH]c(=O)[nH]1 [CBK153784] | 96.6 |
| CC(C)NC(=O)CN1CCC(Oc2nccnc2OCc2ccc(Cl)c(Cl)c2)CC1 [CBK153791] | 92.2 |
| O=C(c1cnoc1-c1ccc([N+](=O)[O-])cc1)N1CCCC1 [CBK153846] | 107 |
| CCc1ccc(CNC(=O)Cn2nnnc2-c2ccc(CN3CCC(C)CC3)cn2)cc1 [CBK153930C] | 85.6 |
| O=S(=O)(Nc1ccc(-c2nnn[nH]2)cc1)c1c(F)cccc1F [CBK154734] | 92.2 |
| CCNC(=S)N1CCN(C(=O)c2cccc(OC)c2)CC1 [CBK154778] | 97.3 |
| CCOC(=O)C1CCCN(S(=O)(=O)c2sc3ccc(Cl)cc3c2C)C1 (stereo not shown) [CBK154797] | 97.2 |
| Clc1cncc(-c2cc3ccccc3[nH]2)n1 [CBK154865] | 101 |
| O=S(=O)(c1ccccc1)c1nc(N2CCNCC2)cn2ccnc12 [CBK154875T] | 94.7 |
| COc1cc(CNC(=O)c2cnoc2-c2ccc(Br)cc2)cc(OC)c1OC [CBK154893] | 110 |
| Cc1ccc(CNC(=O)c2cnoc2-c2ccc(Br)cc2)cc1F [CBK154896] | 93.8 |
| Cc1ccc(-c2oncc2C(=O)NCc2ccc(S(N)(=O)=O)cc2)cc1 [CBK154912] | 102 |
| O=C(NC1CC1)c1cnoc1-c1ccccc1 [CBK154935] | 106 |
| O=C(NCc1ccc(Cl)c(Cl)c1)c1cnoc1-c1ccccc1Cl [CBK154942] | 98.4 |
| O=C(OCc1ccccc1)N1CCN(C(=O)c2cc3cc(Br)ccc3[nH]2)CC1 [CBK154991] | 97.5 |
